The text below walks through data of patent US20240228506A1, “RIPK1 INHIBITORS AND METHODS OF USE” (Merck Sharp & Dohme LLC, priority 2021, published 2024).

SMILES strings stand for the structures.

The experiment addresses T1, GST-RIPK1 (recombinant GST-RIPK1 kinase domain (residues 1-327)) (Homo sapiens, UniProt Q13546).
T1 construct: recombinant GST-RIPK1 kinase domain (residues 1-327) enzyme; made in house; host or cells: baculovirus-transfected Sf21 insect cells
T1 sequence (Q13546 1-327): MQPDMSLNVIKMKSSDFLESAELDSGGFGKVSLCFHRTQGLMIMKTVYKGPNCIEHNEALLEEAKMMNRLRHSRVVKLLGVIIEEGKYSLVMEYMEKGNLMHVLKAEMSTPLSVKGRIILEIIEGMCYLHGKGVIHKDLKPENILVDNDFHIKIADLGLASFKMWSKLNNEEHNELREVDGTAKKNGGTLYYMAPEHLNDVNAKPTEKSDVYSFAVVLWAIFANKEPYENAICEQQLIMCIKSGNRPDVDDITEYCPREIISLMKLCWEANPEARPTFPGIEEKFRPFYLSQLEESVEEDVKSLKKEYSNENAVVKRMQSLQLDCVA
The experiment can be described thus: RIPK1-ADP-Glo enzymatic assay. Particulars: 25 nM GST-RIPK1, 300 μM ATP, 3 μM dephosphorylated-MBP; 30 minutes pre-incubation, 150 minutes reaction; ten-point titration. Format: biochemical. The method in brief:
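Ten-point 1:3 titrations from 100000 nM, 1% DMSO, were preincubated 30 min with 25 nM GST-RIPK1 (1-327) before starting with 300 μM ATP plus 3 μM dephosphorylated MBP; 150 min reaction. ADP-Glo luminescence measured ATP-to-ADP conversion; EC50 by four-parameter sigmoidal regression.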
For the compound `CC1(C(=O)N2C[C@@H]3C[C@H]2c2cncc(C#N)c2O3)CCCC(F)(F)C1` (single isomer, unassigned) [Compound 1-41, (2S,5S)-4-[3,3-difluoro-1-(R or S)-methylcyclohexane-1-carbonyl]-2,3,4,5-tetrahydro-2,5-methanopyrido[3,4-f][1,4]oxazepine-9-carbonitrile], the IC50 was 27 nM.

Turning to `CC(C)(C(=O)N1C[C@@H]2C[C@H]1c1cncc(C#Cc3ncco3)c1O2)C(F)F` [Compound 2-72], the concentration for half-maximal inhibition (IC50) was 68 nM. Next, `O=C(N1C[C@@H]2C[C@H]1c1cncc(C#Cc3cncnc3)c1O2)C12CCC(C(F)(F)F)(CC1)C2` [Compound 2-50, ((2S,5S)-9-(Pyrimidin-5-ylethynyl)-2,3-dihydro-2,5-methanopyrido[3,4-f][1,4]oxazepin-4(5H)-yl)(4-(trifluoromethyl)bicyclo[2.2.1]heptan-1-yl)methanone]: 15 nM; `CC(C)(C(=O)N1C[C@@H]2C[C@H]1c1cncc(C#Cc3cnc(C#N)nc3)c1O2)C(F)F` [Compound 2-78, 5-(((2S,5S)-4-(3,3-difluoro-2,2-dimethylpropanoyl)-2,3,4,5-tetrahydro-2,5-methanopyrido[3,4-f][1,4]oxazepin-9-yl)ethynyl)pyrimidine-2-carbonitrile]: 19 nM; `COc1cnc(N2CCC(F)(C(=O)N3C[C@@H]4C[C@H]3c3cncc(C#N)c3O4)CC2)nc1` [Compound 1-80, (2S,5S)-4-(4-fluoro-1-(5-methoxypyrimidin-2-yl)piperidine-4-carbonyl)-2,3,4,5-tetrahydro-2,5-methanopyrido[3,4-f][1,4]oxazepine-9-carbonitrile]: 332 nM. In the case of `CC(C)(C(=O)N1C[C@H]2Cc3c(C#N)cncc3[C@@H]1C2)C(F)F` (single isomer, unassigned) [Compound 5-5], the IC50 is 1360 nM. On to `N#Cc1cncc2c1O[C@H]1C[C@@H]2N(C(=O)C2(F)CC(Oc3ccc(F)cc3F)C2)C1` (single isomer, unassigned) [Compound 1-107, (2S,5S)-4-(3-(2,4-difluorophenoxy)-1-(R or S)-fluorocyclobutane-1-carbonyl)-2,3,4,5-tetrahydro-2,5-methanopyrido[3,4-f][1,4]oxazepine-9-carbonitrile], for which the IC50 was determined as 23 nM.

Consider `CC(C)(C(=O)N1C[C@@H]2C[C@H]1c1cncc(C#CCc3ccccc3)c1O2)C(F)F` [Compound 2-46, 3,3-difluoro-2,2-dimethyl-1-((2S,5S)-9-(3-phenylprop-1-yn-1-yl)-2,3-dihydro-2,5-methanopyrido[3,4-f][1,4]oxazepin-4(5H)-yl)propan-1-one], for which the half-inhibitory concentration (IC50) was determined as 98 nM. In the case of `CC12CC(C(=O)N3C[C@@H]4C[C@H]3c3cncc(C#N)c3O4)(C1)C2` [Compound 1-104, (2S,5S)-4-(3-methylbicyclo[1.1.1]pentane-1-carbonyl)-2,3,4,5-tetrahydro-2,5-methanopyrido[3,4-f][1,4]oxazepine-9-carbonitrile] it was 203 nM. For `CC(C)(C(=O)N1C[C@@H]2C[C@H]1c1cncc(C#Cc3ccccc3)c1O2)C(F)F` [Compound 2-47, 3,3-Difluoro-2,2-dimethyl-1-((2S,5S)-9-(phenylethynyl)-2,3-dihydro-2,5-methanopyrido[3,4-f][1,4]oxazepin-4(5H)-yl)propan-1-one], the half-maximal inhibitory concentration (IC50) is 66 nM. For `N#Cc1cncc2c1O[C@H]1C[C@@H]2N(C(=O)C23CCC(C2)C3)C1` [Compound 1-31, (2S,5S)-4-(bicyclo[2.1.1]hexane-1-carbonyl)-2,3,4,5-tetrahydro-2,5-methanopyrido[3,4-f][1,4]oxazepine-9-carbonitrile], the concentration for half-maximal inhibition (IC50) came to 54 nM.

For the compound `C[C@]1(C(=O)N2C[C@@H]3C[C@H]2c2cncc(C#N)c2S3)C[C@H](C#N)C1` [Compound 4-8, (2S,5S)-4-((1r,3S)-3-cyano-1-methylcyclobutane-1-carbonyl)-2,3,4,5-tetrahydro-2,5-methanopyrido[3,4-f][1,4]thiazepine-9-carbonitrile], the IC50 stood at 117 nM.

`O=C(N1C[C@@H]2C[C@H]1c1cncc(Cl)c1O2)C1(C(F)F)CCC1` [Compound 2-12, ((2S,5S)-9-chloro-2,3-dihydro-2,5-methanopyrido[3,4-f][1,4]oxazepin-4(5H)-yl)(1-(difluoromethyl)cyclobutyl) methanone]: the IC50 came out at 124 nM.

Regarding `CC(C)(Cc1ccccc1)C(=O)N1C[C@@H]2C[C@H]1c1cncc(C#N)c1O2` [Compound 1-68, (2S,5S)-4-(2,2-dimethyl-3-phenylpropanoyl)-2,3,4,5-tetrahydro-2,5-methanopyrido[3,4-f][1,4]oxazepine-9-carbonitrile], the IC50 came out at 259 nM. In the case of `Cc1ncc2c(c1C#N)O[C@H]1C[C@@H]2N(C(=O)C23CCC(C(F)(F)F)(CC2)C3)C1` [Compound 1-82, (2S,5S)-8-methyl-4-(4-(trifluoromethyl)bicyclo[2.2.1]heptane-1-carbonyl)-2,3,4,5-tetrahydro-2,5-methanopyrido[3,4-f](1,4]oxazepine-9-carbonitrile] it was 13 nM; in that of `C#Cc1cncc2c1O[C@H]1C[C@@H]2N(C(=O)C(C)(C)C(F)F)C1` [Compound 2-32, 1-((2S,5S)-9-Ethynyl-2,3-dihydro-2,5-methanopyrido[3,4-f][1,4]oxazepin-4(5H)-yl)-3,3-difluoro-2,2-dimethylpropan-1-one], 167 nM; in that of `C=CC(C)(C)C(=O)N1C[C@@H]2C[C@H]1c1cncc(C#N)c1O2` [Compound 1-95, (2S,5S)-4-(2,2-dimethylbut-3-enoyl)-2,3,4,5-tetrahydro-2,5-methanopyrido[3,4-f][1,4]oxazepine-9-carbonitrile], 30 nM.

On to `O=C(N1C[C@@H]2C[C@H]1c1cncc(C#CCC3(F)COC3)c1O2)C12CCC(F)(CC1)C2` [Compound 2-120, (4-fluorobicyclo[2.2.1]heptan-1-yl)((2S,5S)-9-(3-(3-fluorooxetan-3-yl)prop-1-yn-1-yl)-2,3-dihydro-2,5-methanopyrido[3,4-f][1,4]oxazepin-4(5H)-yl)methanone], for which the half-inhibitory concentration (IC50) was 95 nM. Next, `CC(C)(C(=O)N1C[C@@H]2C[C@H]1c1cncc(C#Cc3ccccc3F)c1O2)C(F)F` [Compound 2-44, 3,3-difluoro-1-((2S,5S)-9-((2-fluorophenyl)ethynyl)-2,3-dihydro-2,5-methanopyrido[3,4-f][1,4]oxazepin-4(5H)-yl)-2,2-dimethylpropan-1-one]: 34 nM; `CC(C)(CC(F)(F)F)C(=O)N1C[C@@H]2C[C@H]1c1cncc(C#N)c1O2` [Compound 1-35, (2S,5S)-4-(4,4,4-trifluoro-2,2-dimethylbutanoyl)-2,3,4,5-tetrahydro-2,5-methanopyrido[3,4-f][1,4]oxazepine-9-carbonitrile]: 483 nM. Turning to `O=C(N1C[C@@H]2C[C@H]1c1cncc(C#Cc3cncnc3)c1O2)C12CCC(F)(CC1)C2` [Compound 2-102, (4-fluorobicyclo[2.2.1]heptan-1-yl)((2S,5S)-9-(pyrimidin-5-ylethynyl)-2,3-dihydro-2,5-methanopyrido[3,4-f][1,4]oxazepin-4(5H)-yl)methanone], the half-inhibitory concentration (IC50) was found to be 13 nM. Next, `COc1cccc(C#Cc2cncc3c2O[C@H]2C[C@@H]3N(C(=O)C34CCC(C(F)(F)F)(CC3)C4)C2)c1` [Compound 2-66, ((2S,5S)-9-((3-methoxyphenyl)ethynyl)-2,3-dihydro-2,5-methanopyrido[3,4-f][1,4]oxazepin-4(5H)-yl)(4-(trifluoromethyl)bicyclo [2.2.1]heptan-1-yl)methanone]: 18 nM; `CC1(C(=O)N2C[C@@H]3C[C@H]2c2cncc(C#N)c2O3)CCOC1` (mixture of isomers) [Compound 1-67, (2S,5S)-4-(3-(S and R)-methyltetrahydrofuran-3-carbonyl)-2,3,4,5-tetrahydro-2,5-methanopyrido[3,4-f][1,4]oxazepine-9-carbonitrile]: 640 nM.

With `O=C(N1C[C@@H]2C[C@H]1c1cncc(C#CCO)c1O2)C12CCC(C(F)(F)F)(CC1)C2` [Compound 2-57, ((2S,5S)-9-(3-hydroxyprop-1-yn-1-yl)-2,3-dihydro-2,5-methanopyrido[3,4-f][1,4]oxazepin-4(5H)-yl)(4-(trifluoromethyl)bicyclo[2.2.1]heptan-1-yl)methanone], the IC50 was 78 nM.

On to `N#Cc1cncc2c1O[C@H]1C[C@@H]2N(C(=O)C2(F)CCN(c3ccnc4c(F)cnn34)CC2)C1` [Compound 1-55, (2S,5S)-4-(4-fluoro-1-(3-fluoropyrazolo[1,5-a]pyrimidin-7-yl)piperidine-4-carbonyl)-2,3,4,5-tetrahydro-2,5-methanopyrido[3,4-f][1,4]oxazepine-9-carbonitrile], for which the IC50 amounted to 18 nM. On to `CC(C)(C(=O)N1C[C@@H]2C[C@H]1c1cncc(C#Cc3ccc(C(F)F)nc3)c1O2)C(F)F` [Compound 2-84, 1-((2S,5S)-9-((6-(difluoromethyl)pyridin-3-yl)ethynyl)-2,3-dihydro-2,5-methanopyrido[3,4-f][1,4]oxazepin-4(5H)-yl)-3,3-difluoro-2,2-dimethylpropan-1-one], for which the IC50 is 26 nM. Next, `COc1ncc(C#Cc2cncc3c2O[C@H]2C[C@@H]3N(C(=O)C(C)(C)C(F)F)C2)c(OC)n1` [Compound 2-94, 1-((2S,5S)-9-((2,4-dimethoxypyrimidin-5-yl)ethynyl)-2,3-dihydro-2,5-methanopyrido[3,4-f][1,4]oxazepin-4(5H)-yl)-3,3-difluoro-2,2-dimethylpropan-1-one]: 49 nM.
